Data: paper PMC11410929, “Biochemical and crystallographic studies of L,D-transpeptidase 2 from Mycobacterium tuberculosis with its natural monomer substrate” (Communications Biology, 2024)

System: LdtMt2^C354S
Type: biochemical, Mycobacterium tuberculosis

“GlcNAc-Muramitol-L-Ala-D-iGluNH2-m-DAPNH2-D-Ala [Compound 2]” was tested. Which “Product formation with LdtMt2^C354S” value did it give?
Its value is “no product formation was observed”.

For “GlcNAc-MurNAc-L-Ala-D-iGluNH2-m-DAPNH2-D-Ala [Compound 1]”, which “Product formation with LdtMt2^C354S” value is on record?
Its value is “no product formation was observed”.

How did the “Product formation with LdtMt2^C354S” value turn out when “lactoyl-L-Ala-D-iGluNH2-m-DAPNH2-D-Ala [Compound 3]” was run?
Its value is “no product formation was observed”.
